From patent US11377442B2, “Small molecule agonists and antagonists of NR2F6 activity” (ZANDER THERAPEUTICS, INC., priority 2016, dated 2022)

Legend:
Type in all cases: cell-based
[1] = target: T1, ERα (Homo sapiens, UniProt P03372); assay: Counterscreening, Firefly signal with ERα transient transfection (Firefly_ERa); settings: Table 15
T1 construct: expressed in transfected cells
T1 sequence (P03372 1-595): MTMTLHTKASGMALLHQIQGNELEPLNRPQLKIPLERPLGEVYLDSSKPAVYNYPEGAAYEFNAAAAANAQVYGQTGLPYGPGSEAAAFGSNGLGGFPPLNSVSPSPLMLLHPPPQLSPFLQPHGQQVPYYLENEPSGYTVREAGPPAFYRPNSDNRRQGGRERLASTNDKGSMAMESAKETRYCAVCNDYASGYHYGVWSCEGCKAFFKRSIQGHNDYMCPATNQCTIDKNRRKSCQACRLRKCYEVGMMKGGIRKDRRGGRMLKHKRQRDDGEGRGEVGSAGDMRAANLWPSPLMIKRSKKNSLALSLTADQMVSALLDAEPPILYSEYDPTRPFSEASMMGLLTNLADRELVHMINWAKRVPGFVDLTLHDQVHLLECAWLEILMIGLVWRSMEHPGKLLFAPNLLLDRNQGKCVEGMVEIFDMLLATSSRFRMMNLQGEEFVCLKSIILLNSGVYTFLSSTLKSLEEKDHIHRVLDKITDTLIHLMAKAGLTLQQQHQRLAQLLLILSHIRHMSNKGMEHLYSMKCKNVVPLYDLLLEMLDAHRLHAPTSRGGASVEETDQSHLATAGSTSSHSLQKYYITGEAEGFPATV

[2] = target: T1, ERα; assay: as above; settings: Table 15; 10 uM
Procedure: The methodology for screening candidate compounds as NR2F6 agonists was as follows: For primary screening, hit criteria was ACT %>DMSO control+5*SD (DSO control) at 10 μM, or any compound with S/B>2. For rescreening, hit criteria was ACT %>DMSO control+3*SD (DSO control) in each replicate at 10 μM. For counterscreening, hit criteria was mean ACT<DMSO control+3*SD (DMSO control) with ERα transient transfection in duplicate at 10 μM.

[3] = system: Renilla_ERa; assay: Renilla signal in ERα counterscreen (Renilla_ERa); settings: Table 15, read-out: Renilla ERalpha transient, cmpd/DMSO (mean)
[4] = target: T2, NR2F6 (Homo sapiens, UniProt P10588); assay: NR2F6 agonist screening, Firefly signal cmpd/DMSO; settings: Table 15
T2 construct: expressed in transfected cells; also transient transfection
T2 sequence (P10588 1-404): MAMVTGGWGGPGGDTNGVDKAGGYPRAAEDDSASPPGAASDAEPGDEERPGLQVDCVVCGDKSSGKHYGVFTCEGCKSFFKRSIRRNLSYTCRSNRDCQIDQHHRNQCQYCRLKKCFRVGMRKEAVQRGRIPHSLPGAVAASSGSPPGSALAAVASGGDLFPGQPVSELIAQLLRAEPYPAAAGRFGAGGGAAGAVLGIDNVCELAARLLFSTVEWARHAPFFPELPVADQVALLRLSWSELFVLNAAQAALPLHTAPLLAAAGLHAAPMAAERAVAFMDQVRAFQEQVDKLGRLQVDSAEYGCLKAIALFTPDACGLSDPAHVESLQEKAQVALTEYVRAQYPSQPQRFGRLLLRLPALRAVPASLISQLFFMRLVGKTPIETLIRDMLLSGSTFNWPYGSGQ

CCOC(=O)c1cnc2c(C)cc(C)cc2c1NCCCN1CCCCC1 [Compound Z8]
Firefly ERalpha transient, cmpd/DMSO (mean) ([1]; 2 uM): 2.2
Firefly ERalpha transient, cmpd/DMSO (mean) ([1]; 40 uM): 0.4
Firefly ERalpha transient, cmpd/DMSO (mean) [2]: 2.4
fold induction at 2 µM ([3]; 2 uM): 1.4
fold induction at 10 µM ([3]; 10 uM): 1.4
Firefly F4, cmpd/DMSO (mean) ([4]; 2 uM): 2.6
Firefly F4, cmpd/DMSO (mean) ([4]; 10 uM): 4.0
Firefly F4, cmpd/DMSO (mean) ([4]; 40 uM): 0.7

CCOC(=O)c1cnc2c(C)cc(C)cc2c1NCCCN1CCCCC1 [Compound Z9]
Firefly ERalpha transient, cmpd/DMSO (mean) ([1]; 2 uM): 2.2
Firefly ERalpha transient, cmpd/DMSO (mean) ([1]; 40 uM): 0.5
Firefly ERalpha transient, cmpd/DMSO (mean) [2]: 2.7
Firefly F4, cmpd/DMSO (mean) ([4]; 2 uM): 2.5
Firefly F4, cmpd/DMSO (mean) ([4]; 10 uM): 6.7
Firefly F4, cmpd/DMSO (mean) ([4]; 40 uM): 1.2

CCOC(=O)c1cnc2c(C)cc(C)cc2c1NCCCN1CCCCC1 [Compound Z10]
Firefly ERalpha transient, cmpd/DMSO (mean) ([1]; 2 uM): 4.2
Firefly ERalpha transient, cmpd/DMSO (mean) ([1]; 40 uM): 0.5
Firefly ERalpha transient, cmpd/DMSO (mean) [2]: 1.5
Firefly F4, cmpd/DMSO (mean) ([4]; 2 uM): 5.8
Firefly F4, cmpd/DMSO (mean) ([4]; 10 uM): 1.6
Firefly F4, cmpd/DMSO (mean) ([4]; 40 uM): 0.7

CCOC(=O)c1cnc2c(C)cc(C)cc2c1NCCCN1CCCCC1 [Compound Z11]
Firefly ERalpha transient, cmpd/DMSO (mean) ([1]; 2 uM): 2.1
Firefly ERalpha transient, cmpd/DMSO (mean) ([1]; 40 uM): 0.6
Firefly ERalpha transient, cmpd/DMSO (mean) [2]: 1.6
Firefly F4, cmpd/DMSO (mean) ([4]; 2 uM): 3.5
Firefly F4, cmpd/DMSO (mean) ([4]; 10 uM): 1.2
Firefly F4, cmpd/DMSO (mean) ([4]; 40 uM): 0.5

CCOC(=O)c1cnc2c(C)cc(C)cc2c1NCCCN1CCCCC1 [Compound Z12]
Firefly ERalpha transient, cmpd/DMSO (mean) ([1]; 2 uM): 2.4
Firefly ERalpha transient, cmpd/DMSO (mean) ([1]; 40 uM): 0.4
Firefly ERalpha transient, cmpd/DMSO (mean) [2]: 1.3
Firefly F4, cmpd/DMSO (mean) ([4]; 2 uM): 3.9
Firefly F4, cmpd/DMSO (mean) ([4]; 10 uM): 1.8
Firefly F4, cmpd/DMSO (mean) ([4]; 40 uM): 0.4

CCOC(=O)c1cnc2c(C)cc(C)cc2c1NCCCN1CCCCC1 [Compound Z17]
Firefly ERalpha transient, cmpd/DMSO (mean) ([1]; 2 uM): 1.7
Firefly ERalpha transient, cmpd/DMSO (mean) ([1]; 40 uM): 2.9
Firefly ERalpha transient, cmpd/DMSO (mean) [2]: 9.5
Firefly F4, cmpd/DMSO (mean) ([4]; 2 uM): 1.5
Firefly F4, cmpd/DMSO (mean) ([4]; 10 uM): 6.5
Firefly F4, cmpd/DMSO (mean) ([4]; 40 uM): 0.6

CCOC(=O)c1cnc2c(C)cc(C)cc2c1NCCCN1CCCCC1 [Compound Z19]
Firefly ERalpha transient, cmpd/DMSO (mean) ([1]; 2 uM): 1.9
Firefly ERalpha transient, cmpd/DMSO (mean) ([1]; 40 uM): 0.7
Firefly ERalpha transient, cmpd/DMSO (mean) [2]: 12.7
Firefly F4, cmpd/DMSO (mean) ([4]; 2 uM): 1.3
Firefly F4, cmpd/DMSO (mean) ([4]; 10 uM): 6.3
Firefly F4, cmpd/DMSO (mean) ([4]; 40 uM): 0.7
